Values after ≈ are worked out from the molar mass of the structure shown.
Assay: Metabolic stability in human liver microsomes (CLint HLM)
Assay type: in vitro ADME
Details: both sexes, human, liver microsomes, pH 7.4, measured on the labelled compound itself, 1 mg/mL microsomal protein, 1 mM NADPH, 37 °C, n = 1, read-out: CLint HLM (intrinsic clearance in human liver microsomes)
Protocol: Metabolic stability in human liver microsomes (CLint HLM)
Human liver microsomes were defrosted on ice and diluted to 1 mg/mL of microsomal protein in phosphate buffer (0.1 M, pH 7.4). Compounds at 1 μM were incubated with the liver microsome suspensions and 1 mM NADPH at 37 °C in a 96-well plate. At 0.5, 5, 10, 15, 20 and 30 min, aliquots of 30 μL were transferred to a 96-well plate containing 120 μL MeCN. This plate was centrifuged for 20 min and supernatant was removed and diluted with H2O (1:1) before analysis by LC-MS/MS (Waters Xevo-TQS). Peak areas were determined from extracted ion chromatograms, and the in vitro intrinsic clearance (in vitro CLint, in μL/min/mg microsomal protein) of parent compound was calculated from the slope in the regression analysis of the natural logarithm of parent concentration vs. time curve.
Human Liver Microsomes (InVitroCYPTM 150-Donor, Mixed Gender) were harvested and supplied by BioIVT (Product No. X008070, Lot No. QQY). […]
(§1) The modulation of pharmaceutically relevant properties on meta-C–H alkylation is shown below in Supplementary Fig. 68, with a selection of physicochemical and DMPK data including solubility , LogD, human plasma protein binding (Prot. Bind.) and intrinsic clearance (CLint) in human liver microsomes (HLM) or rat hepatocytes (Rat Hep.) .
With `CCN(Cc1ccccc1)C(=O)Cn1c(=O)n(C)c2cnc(-c3cccc(C4(C(=O)OC)CCCC4)c3)nc21` [6e] the microsomal CLint at 1 μM was over 300 µL/min/mg. In the case of `CCOC(=O)C(F)(F)c1cccc(-c2ncc3c(n2)n(CC(=O)N(CC)Cc2ccccc2)c(=O)n3C)c1` [6f], the microsomal CLint at 1 μM is reported as over 300 µL/min/mg. Compound `CCOP(=O)(OCC)C(F)(F)c1cccc(-c2ncc3c(n2)n(CC(=O)N(CC)Cc2ccccc2)c(=O)n3C)c1` [6g] has a microsomal CLint at 1 μM of over 300 µL/min/mg.

Same assay, conditions: measured on the labelled compound itself; 1 μM, 1 mg/mL microsomal protein, 1 mM NADPH, 37 °C, n = 1
With `CCN(Cc1ccccc1)C(=O)Cn1c(=O)n(C)c2cnc(-c3cccc(C4(C(=O)OC)CCCC4)c3)nc21` [6e] the “CLint HLM (intrinsic clearance in human liver microsomes)” value (“CLint HLM” for short) was under 3.0 µL/min/mg. With `CCOC(=O)C(F)(F)c1cccc(-c2ncc3c(n2)n(CC(=O)N(CC)Cc2ccccc2)c(=O)n3C)c1` [6f] the “CLint HLM” value was 4.0 µL/min/mg. For `CCOP(=O)(OCC)C(F)(F)c1cccc(-c2ncc3c(n2)n(CC(=O)N(CC)Cc2ccccc2)c(=O)n3C)c1` [6g], the “CLint HLM” value was under 3.0 µL/min/mg.

Assay: Fraction unbound in human plasma (Prot. Bind.), equilibrium dialysis
Assay type: in vitro ADME
Details: 5 μM, dialysis at 37 °C for 18 hours, n = 1
Excerpt: (§2) 5. Pharmaceutically relevant properties modulation
(§3) Product analogues 5e, 6a-6k obtained after late-stage meta-C–H alkylation of the pharmaceutically active compound Emapunil (4e) were subjected to a range of fundamental in vitro drug discovery assays. To prevent hydrolysis of ester groups present on these analogues during biological testing (in order to compare the clearance and metabolic stability between these drug derivatives), their corresponding free acids 5e’, 6a’-6k’ were synthesised (see page S54) and subjected to similar assays.
(§4) The experimental methods used for these physicochemical & drug metabolism and pharmacokinetics (DMPK) assays are described below 11. […]
Fraction unbound in human plasma (Prot. Bind.)
Equilibrium dialysis of compounds was used to assess the fraction unbound in human plasma. Stock solutions of compounds dissolved in DMSO were pooled into cassettes with up to 10 compounds in each cassette with a concentration of 1 mM. The pooled stock solutions were diluted in plasma to a compound concentration of 5 μM. Warfarin, propranolol and metoprolol were used as reference compounds in each run. The equilibrium dialysis device (RED, Thermo Fischer Scientific Inc., Rockford, USA) was used for dialysis against phosphate buffer (pH 7.4) at 37 °C for 18 hours. Calibration curves ranging from 0.001 to 7 μM were made using aliquots of the 7 μM spiked plasma pools that were transferred to a new plate followed by serial dilutions with blank plasma. Calibration curve samples and dialysis samples were precipitated with MeCN and after centrifugation, supernatants were removed and analysed using LC-MS/MS (Waters Xevo-TQS). Fraction unbound in the incubation was calculated as the concentration in the media buffer sample divided by the concentration in the plasma sample. The fraction unbound was reported as the median value.
With `CCN(Cc1ccccc1)C(=O)Cn1c(=O)n(C)c2cnc(-c3cccc(C4(C(=O)OC)CCCC4)c3)nc21` [6e] the “Prot. Bind. (% free), human plasma protein binding” value (from here on “Prot. Bind. (% free)”) was 0.4 % free. For `CCOC(=O)C(F)(F)c1cccc(-c2ncc3c(n2)n(CC(=O)N(CC)Cc2ccccc2)c(=O)n3C)c1` [6f], the “Prot. Bind. (% free)” value was 3.3 % free. With `CCOP(=O)(OCC)C(F)(F)c1cccc(-c2ncc3c(n2)n(CC(=O)N(CC)Cc2ccccc2)c(=O)n3C)c1` [6g] the “Prot. Bind. (% free)” value was 2.0 % free.

Same assay, conditions: 5 μM, dialysis at 37 °C for 18 hours, n = 1, listed as 6e’
With `CCN(Cc1ccccc1)C(=O)Cn1c(=O)n(C)c2cnc(-c3cccc(C4(C(=O)OC)CCCC4)c3)nc21` [6e] the “Prot. Bind. (% free)” value was 0.7 % free.

Same assay, conditions: 5 μM, dialysis at 37 °C for 18 hours, n = 1, listed as 6g’
With `CCOP(=O)(OCC)C(F)(F)c1cccc(-c2ncc3c(n2)n(CC(=O)N(CC)Cc2ccccc2)c(=O)n3C)c1` [6g] the “Prot. Bind. (% free)” value was 3.7 % free.

Assay: Metabolic stability in male Han Wistar rat hepatocytes (CLint Rat Hep.)
Assay type: in vitro ADME
Details: measured on the labelled compound itself; 1 μM, 10^6 viable cells/mL, 37 °C, n = 1
Protocol: Metabolic stability in male Han Wistar rat hepatocytes (CLint Rat Hep.) Hepatocyte metabolic stability was determined in accordance with the method described by Jacobson et al14. Cryopreserved hepatocytes at a concentration of 10 6 viable cells/mL were used. After thawing, hepatocytes were incubated for 10 min to warm to 37 °C, and compounds dissolved in MeCN were […]
incubation system was mixed and 20 μL aliquots were transferred at each time point to wells in a separate plate filled with 80 μL MeCN to stop the reaction. The quenching plate was then vortexed followed by centrifugation, and supernatants were analysed by LC-MS/MS (Waters Xevo-TQS). Peak areas were determined from extracted ion chromatograms, and the in vitro intrinsic clearance (in vitro CLint, in μL/min/10^6 cells) of parent compound was calculated from the slope in the regression analysis of the natural logarithm of parent concentration vs. time curve. Rat Hepatocytes (Cryosuspension, Male Wistar Hannover ) were harvested and s upplied by BioIVT (Product No. M00065, Lot No. DVO).
as §1
For `CCN(Cc1ccccc1)C(=O)Cn1c(=O)n(C)c2cnc(-c3cccc(C4(C(=O)OC)CCCC4)c3)nc21` [6e], the “CLint Rat Hep. (intrinsic clearance in rat hepatocytes)” value was over 300 μL/min/10^6. For `CCOC(=O)C(F)(F)c1cccc(-c2ncc3c(n2)n(CC(=O)N(CC)Cc2ccccc2)c(=O)n3C)c1` [6f], the “CLint Rat Hep. (intrinsic clearance in rat hepatocytes)” value was over 300 μL/min/10^6. In the case of `CCOP(=O)(OCC)C(F)(F)c1cccc(-c2ncc3c(n2)n(CC(=O)N(CC)Cc2ccccc2)c(=O)n3C)c1` [6g], the “CLint Rat Hep. (intrinsic clearance in rat hepatocytes)” value is reported as over 300 μL/min/10^6.

Same assay, conditions: measured on the labelled compound itself; 1 μM, 10^6 viable cells/mL, 37 °C, n = 1; listed as 6e’
For `CCN(Cc1ccccc1)C(=O)Cn1c(=O)n(C)c2cnc(-c3cccc(C4(C(=O)OC)CCCC4)c3)nc21` [6e], the “CLint Rat Hep. (intrinsic clearance in rat hepatocytes)” value was 51.0 μL/min/10^6.

Same assay, conditions: measured on the labelled compound itself; 1 μM, 10^6 viable cells/mL, 37 °C, n = 1; listed as 6f’
In the case of `CCOC(=O)C(F)(F)c1cccc(-c2ncc3c(n2)n(CC(=O)N(CC)Cc2ccccc2)c(=O)n3C)c1` [6f], the “CLint Rat Hep. (intrinsic clearance in rat hepatocytes)” value is reported as 6.8 μL/min/10^6.

Same assay, conditions: measured on the labelled compound itself; 1 μM, 10^6 viable cells/mL, 37 °C, n = 1; listed as 6g’
With `CCOP(=O)(OCC)C(F)(F)c1cccc(-c2ncc3c(n2)n(CC(=O)N(CC)Cc2ccccc2)c(=O)n3C)c1` [6g] the “CLint Rat Hep. (intrinsic clearance in rat hepatocytes)” value was 4.2 μL/min/10^6.

Assay: Thermodynamic solubility, shake-flask approach, phosphate buffer pH 7.4
Assay type: physicochemical
Details: aqueous buffer, thermodynamic from solid, pH 7.4, phosphate buffer 0.1 M, 20 °C, n = 1
Excerpt: as §2, §3
The experimental methods used for these physicochemical & drug metabolism and pharmacokinetics (DMPK) assays are described below 11.
This method measures the thermodynamic solubility of compounds based on a shake-flask approach12.
The nature of the solid state was unknown in these experiments and may be subject to variability. The compounds were dissolved in DMSO (30 μL, 10 mM) in glass vials, and were dried using a Genevac vacuum evaporator (Genevac Ltd, Ipswich, UK). When the samples were dry, 300 μL of phosphate buffer (0.1 M, pH 7.4) was added to the glass vials. The vials were put on an Edmund Bühler shaker (Edmund Bühler GmbH, Hechingen, Germany) at 20 °C for 18 hours. Samples were filtered through a Whatman GF/B 96-well filter and 20 μL of filtrated samples were transferred to separate wells in a plate containing 180 μL MeCN/H2O (1:1). Standards were prepared by diluting the 10 mM compound solutions with MeCN/H2O (1:1) to 200 μM. Three further dilution steps of 10 times were applied to both the samples and standards and they were all analy sed by LC-MS/MS (Waters Xevo-TQS). Solubility was determined using the integrated peak areas of the samples in the linear MS response range. […]
Compound `CCN(Cc1ccccc1)C(=O)Cn1c(=O)n(C)c2cnc(-c3cccc(C4(C(=O)OC)CCCC4)c3)nc21` [6e] has a solubility at 18 h of 36 µM (≈ 19 µg/mL). `CCOC(=O)C(F)(F)c1cccc(-c2ncc3c(n2)n(CC(=O)N(CC)Cc2ccccc2)c(=O)n3C)c1` [6f] showed a solubility at 18 h of 12 µM (≈ 6.28 µg/mL). In the case of `CCOP(=O)(OCC)C(F)(F)c1cccc(-c2ncc3c(n2)n(CC(=O)N(CC)Cc2ccccc2)c(=O)n3C)c1` [6g], the solubility at 18 h is reported as 46 µM (≈ 27 µg/mL).

Same assay, conditions: pH 7.4, phosphate buffer 0.1 M, 20 °C, n = 1
`CCN(Cc1ccccc1)C(=O)Cn1c(=O)n(C)c2cnc(-c3cccc(C4(C(=O)OC)CCCC4)c3)nc21` [6e] gave a solubility at 18 h of 864 µM (≈ 456 µg/mL). `CCOC(=O)C(F)(F)c1cccc(-c2ncc3c(n2)n(CC(=O)N(CC)Cc2ccccc2)c(=O)n3C)c1` [6f] gave a solubility at 18 h of 852 µM (≈ 446 µg/mL). `CCOP(=O)(OCC)C(F)(F)c1cccc(-c2ncc3c(n2)n(CC(=O)N(CC)Cc2ccccc2)c(=O)n3C)c1` [6g] gave a solubility at 18 h of over 1000 µM.

Assay: Octanol/water partitioning (LogD), shake-flask method
Assay type: physicochemical
Details: 1-octanol / phosphate buffer pH 7.4, 20 °C, n = 1
Excerpt: as §2, §3, §4
Octanol/water partitioning (LogD)
Partitioning of compounds between 1 -octanol and phosphate buffer (0.1 M, pH 7.4) at 20 °C were determined using a modified version of the shake -flask method described by Leo et al13. Compounds were dissolved in a 96 -well plate, in 400 μL octanol, and 400 μL of buffer was added to each well. The plate was vigorously stirred for 5 min and then put on an Edmund Bühler shaker (Edmund Bühler GmbH, Hechingen, Germany) at 20 °C for 18 hours. Aliquots of 5 μL octanol were transferred and diluted with 495 μL MeCN/H2O (1:1) and, to avoid contamination of the buffer, the rest of the octanol was removed before 150 μL of buffer samples were transferred. Octanol and buffer samples were diluted with MeCN/H2O (1:1) in four steps of 10 times to yield octanol samples diluted 10 2 to 106 times and buffer samples diluted 1 to 104 times. LC-MS/MS (Waters Xevo-TQS) was used for analysis, and distribution coefficient at pH 7.4 (LogD7.4) was calculated from the integrated peak areas of the samples in the linear MS response range. LogD7.4 results were reported as median values. […]
With `CCN(Cc1ccccc1)C(=O)Cn1c(=O)n(C)c2cnc(-c3cccc(C4(C(=O)OC)CCCC4)c3)nc21` [6e] the “LogD (octanol)” value was 1.4. For `CCOC(=O)C(F)(F)c1cccc(-c2ncc3c(n2)n(CC(=O)N(CC)Cc2ccccc2)c(=O)n3C)c1` [6f], the “LogD (octanol)” value was -0.4. With `CCOP(=O)(OCC)C(F)(F)c1cccc(-c2ncc3c(n2)n(CC(=O)N(CC)Cc2ccccc2)c(=O)n3C)c1` [6g] the “LogD (octanol)” value was -0.8 and the logD was 4.4.

Same assay, conditions: 1-octanol/phosphate buffer, pH 7.4, 1-octanol / phosphate buffer pH 7.4, 20 °C, n = 1
For `CCN(Cc1ccccc1)C(=O)Cn1c(=O)n(C)c2cnc(-c3cccc(C4(C(=O)OC)CCCC4)c3)nc21` [6e], the logD was 4.3. `CCOC(=O)C(F)(F)c1cccc(-c2ncc3c(n2)n(CC(=O)N(CC)Cc2ccccc2)c(=O)n3C)c1` [6f] showed a logD of 4.3.

Reference: paper PMC11026381, “Late-stage meta-C–H alkylation of pharmaceuticals to modulate biological properties and expedite molecular optimisation in a single step” (Nature Communications, 2024)
